Reference: ChEMBL document CHEMBL1201862, “PubChem BioAssay data set” (2004)
The source made the active and inactive calls. Rule as the data show it, for most assays here: actives have a measured EC50 and inactives only a lower limit.

How the values were obtained:
[1] = biological target: T1, Corticotropin-releasing factor receptor 2/Corticotropin-releasing factor-binding protein (Homo sapiens, UniProt P24387+Q13324); assay: Dose Response confirmation of uHTS hits for small molecule antagonists of the CRF-binding protein and CRF-R2 receptor complex.; type: functional; details: read-out: IC50_Mean
T1 sequence (Q13324 whole entry): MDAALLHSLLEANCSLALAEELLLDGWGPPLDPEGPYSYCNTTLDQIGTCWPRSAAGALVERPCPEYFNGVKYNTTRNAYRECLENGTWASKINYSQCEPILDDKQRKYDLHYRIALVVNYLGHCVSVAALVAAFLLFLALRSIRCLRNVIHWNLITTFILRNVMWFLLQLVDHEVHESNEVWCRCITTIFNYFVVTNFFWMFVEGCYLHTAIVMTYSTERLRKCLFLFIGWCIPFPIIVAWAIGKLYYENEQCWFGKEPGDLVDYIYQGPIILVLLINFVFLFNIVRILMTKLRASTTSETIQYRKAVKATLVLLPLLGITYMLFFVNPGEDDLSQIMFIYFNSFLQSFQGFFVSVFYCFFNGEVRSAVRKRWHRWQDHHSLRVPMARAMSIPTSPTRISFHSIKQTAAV
T1 sequence (P24387 whole entry): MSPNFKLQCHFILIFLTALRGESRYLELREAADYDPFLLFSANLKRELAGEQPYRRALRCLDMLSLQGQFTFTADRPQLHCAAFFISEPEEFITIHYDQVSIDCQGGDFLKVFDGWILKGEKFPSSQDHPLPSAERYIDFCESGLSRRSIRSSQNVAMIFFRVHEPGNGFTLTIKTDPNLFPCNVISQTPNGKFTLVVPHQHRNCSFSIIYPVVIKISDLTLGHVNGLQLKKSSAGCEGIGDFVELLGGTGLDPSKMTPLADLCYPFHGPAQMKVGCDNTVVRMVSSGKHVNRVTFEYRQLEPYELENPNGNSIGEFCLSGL

[2] = biological target: T2, Ubiquitin-conjugating enzyme E2 N (Homo sapiens, UniProt P61088); type: functional;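 also: Dose-response confirmation in a TR-FRET assay detecting UBC13-driven polyubiquitin chain formation, inhibition measured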
T2 sequence (P61088 whole entry): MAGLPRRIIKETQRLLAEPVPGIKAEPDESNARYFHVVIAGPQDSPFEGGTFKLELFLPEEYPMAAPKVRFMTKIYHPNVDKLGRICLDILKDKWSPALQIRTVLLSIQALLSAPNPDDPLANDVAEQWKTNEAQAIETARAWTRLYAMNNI

[3] = biological target: T1, Corticotropin-releasing factor receptor 2/Corticotropin-releasing factor-binding protein; assay: activators of CRF receptor 2 with binding protein – uHTS hits, confirmation (AID 602473); type: functional; details: read-out: EC50_Mean
cells [4] = type: functional, cell-based
cells [5] = type: functional, cell-based; remark: listed apart in the source
H9c2 = assay: cells; type: functional, cell-based; details: Rattus norvegicus, H9c2, Myocardium
[6] = biological target: FAD-linked sulfhydryl oxidase ALR (Homo sapiens, UniProt P55789); assay: inhibitors of human ALR sulfhydryl oxidase, dose response, biochemical, H2O2 detection, luminescence, cherry-pick (AID 493248)
Streptococcus = assay: Group A Streptococcus viability loss, dose response, counter-screen for streptokinase expression inhibitor project, luminescence, BacTiterGlo (AID 1915); type: functional, organism-based;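 also: potency for reduction of bacterial viability or growth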
[7] = cytotoxicity toward NIH3T3 fibroblasts, dose response, counter-screen, cell-based, ATP luminescence, mouse fibroblasts (AID 2010); type: functional;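 also: cells exposed to compound for about 90 hours before reading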
[8] = Luminescence Cell-Based Dose Response HTS to Identify Inhibitors of 5'UTR Stem-Loop Driven Prion Protein mRNA Translation in H4 Neuroglioblastoma Cells. [Related pubchem assays: 1827 (Project Summary), 1813 (Primary HTS)]; type: functional
[9] = inhibitors of firefly luciferase expression or activity, dose response, H4 neuroglioma cells, luminescence (AID 1990); type: functional, cell-based
[10] = inhibitors of intracellular T. cruzi replication, confirmation, NIH3T3 host cells, beta-gal luminescence (AID 2044); type: functional, cell-based;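 also: intracellular parasites grown in NIH/3T3 mouse fibroblasts as host cells; luminescent beta-galactosidase reporter signal from transgenic T. cruzi replicating inside host cells; inhibitors lower the luminescence signal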
[11] = tested on: Streptococcus sp. 'group A'; assay: growth inhibition of control SK(-) GAS strain, dose response, counter-screen for streptokinase expression inhibitor project, luminescence, kanamycin, BacTiterGlo, confirmation (AID 1900); type: functional, organism-based
[12] = inhibitors of SNCA 5'UTR-driven reporter translation, confirmation, H4 neuroglioma cells, luminescence (AID 1988); type: functional, cell-based
Streptokinase A = biological target: T3, Streptokinase A (Streptococcus pyogenes serotype M1, UniProt P10520); assay: S. pyogenes streptokinase expression inhibitors, potency, dose response, plasminogen activation absorbance, OD405 (AID 1914); type: functional, Streptococcus pyogenes M1 GAS;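 also: secreted streptokinase activity via plasminogen activation per viability signal from cell pellet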
T3 sequence (P10520 whole entry): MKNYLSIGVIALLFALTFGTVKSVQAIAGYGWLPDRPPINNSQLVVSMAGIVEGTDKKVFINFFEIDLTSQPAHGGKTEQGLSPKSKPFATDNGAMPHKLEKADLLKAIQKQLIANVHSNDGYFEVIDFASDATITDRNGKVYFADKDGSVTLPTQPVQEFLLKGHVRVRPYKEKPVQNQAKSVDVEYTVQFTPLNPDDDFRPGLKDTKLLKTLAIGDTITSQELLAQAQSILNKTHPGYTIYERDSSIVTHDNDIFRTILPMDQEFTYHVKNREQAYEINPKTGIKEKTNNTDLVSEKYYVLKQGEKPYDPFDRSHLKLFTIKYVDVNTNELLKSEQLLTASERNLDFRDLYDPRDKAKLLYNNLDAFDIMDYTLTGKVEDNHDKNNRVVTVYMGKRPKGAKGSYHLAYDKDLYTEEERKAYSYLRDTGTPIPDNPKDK

[13] = biological target: Heat shock protein HSP 90-alpha (Homo sapiens, UniProt P07900); type: functional, organism-based
[14] = C. albicans growth with fluconazole, confirmation, fluorescence, retest (AID 2467); type: functional, cell-based
[15] = NIH-3T3 fibroblast cytotoxicity, dose response, cytotoxicity control, cell-based, fluorescence, Alamar Blue, secondary assay (AID 2327); type: functional;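 also: NIH-3T3 mouse fibroblasts cultured with fluconazole at 8 µg/mL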
[16] = Vero E6 cell cytotoxicity, dose response, cytotoxicity control for non-replicating M. tuberculosis project, secondary assay (AID 492998); type: functional, VeroE6; details: Vero C1008
cells [17] = type: functional

FAD-linked sulfhydryl oxidase ALR, sequence (P55789 whole entry): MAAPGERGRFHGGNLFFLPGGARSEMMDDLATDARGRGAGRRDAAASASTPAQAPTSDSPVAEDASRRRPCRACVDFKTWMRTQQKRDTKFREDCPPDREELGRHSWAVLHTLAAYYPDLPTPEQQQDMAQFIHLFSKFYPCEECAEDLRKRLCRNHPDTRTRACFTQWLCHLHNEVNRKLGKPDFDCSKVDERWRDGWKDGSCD

## COc1cccc(CNc2nc(-c3cccnc3)nc3ccccc23)c1
[1]
  IC50: > 47.1 µM (inactive)
[2]
  IC50: > 20 µM (inactive)
[3]
  EC50: > 53 µM (inactive)

## C=C(C)Cn1c(CCNC(=O)C(C)C)nc2ccccc21
Cells [4]
  EC50: > 350 µM (not active)
Cells [5]
  EC50: > 350 µM (not active)

## CN(C)CCNc1ccc(-c2nnc(O)c3ccccc23)cc1[N+](=O)[O-]
H9c2
  IC50: > 79 µM (inactive)

## C[C@H](CO)N1C[C@H](C)[C@@H](CN(C)S(=O)(=O)c2ccccc2)Oc2ccc(NC(=O)Nc3ccccc3)cc2C1=O
H9c2
  IC50: 13.3 µM (active)

## C/C(=N\NC(=O)c1ccncc1)c1ccc(N(C)C)cc1
[6]
  AC50: 5.01 µM (active)

## COc1ccc(C(CCN2CCCC(C)C2)c2c(OC)cc(OC)c3c(-c4ccccc4)cc(=O)oc23)cc1 (centres undefined)
[2]
  IC50: > 20 µM (inactive)

## CCOC(=O)c1cc2c(ccn2C)n1CC(=O)N1CCN(c2ccccc2)CC1
Cells [4]
  EC50: > 350 µM (not active)
Cells [5]
  EC50: > 350 µM (not active)

## O=C(NCCCN1CCOCC1)c1cc(-c2cccs2)on1
Cells [4]
  EC50: > 350 µM (not active)
Cells [5]
  EC50: 77 µM (active)

## CCN(CC)c1ccc(CNCc2cccs2)cc1
[6]
  AC50: 0.742 µM (active)

## O=C(N/N=C\c1cccc(Cl)c1)c1ccc(Cn2cccn2)o1
[6]
  AC50: 0.641 µM (active)

## COc1cccc(N2CCN(CC(=O)NCc3ccccc3)CC2)c1
[6]
  AC50: 1.97 µM (active)

## O=C(COc1ccc([N+](=O)[O-])cc1)Nc1nc(-c2ccccn2)cs1
Streptococcus
  EC50: 13.8 µM (active)
[7]
  EC50: 8.46 µM (active)
[8]
  EC50: 11.8 µM (active)
[9]
  EC50: > 120 µM (not active)
[10]
  EC50: 1.79 µM (active)
[11]
  EC50: 5.56 µM (active)
[12]
  EC50: > 120 µM (not active)
Streptokinase A
  EC50: > 150 µM (not active)
H9c2
  IC50: 11.8 µM (active)

## O=C1OC(c2ccccc2)(c2ccc3cc(O)ccc3c2)c2ccccc21 (centres undefined)
[13]
  AC50: 8.23 µM (active)

## COc1ccc2sc(N(CCCN(C)C)C(=O)c3ccc(S(=O)(=O)N(C)Cc4ccccc4)cc3)nc2c1
[7]
  EC50: > 60 µM (not active)
[2]
  IC50: > 20 µM (inactive)
[10]
  EC50: 0.185 µM (active)

## CCCN1Cc2cccc(C(N)=O)c2C1=O
H9c2
  IC50: > 79 µM (inactive)

## C/C(CC(=O)Nc1cc(C)ccn1)=N\NC(=O)c1cccc(C)c1O
[13]
  AC50: 49.5 µM (active)
[14]
  EC50: > 38 µM (not active)
[15]
  EC50: > 160 µM (inactive)

## CCCCc1c(C)nc(N)nc1O
Cells [4]
  EC50: > 350 µM (not active)
Cells [5]
  EC50: > 350 µM (not active)

## O=C(O)c1nn(CCOc2ccccc2F)c(=O)c2ccccc12
H9c2
  IC50: > 79 µM (inactive)

## c1ccc(Nc2nc(-c3ccccn3)cs2)cc1
[16]
  CC50: > 20 µM (active)
Cells [17]
  IC50: 0.19 µM (active)

## O=C(CSc1nnc(-c2cccnc2)o1)c1cc2ccccc2oc1=O
H9c2
  IC50: > 79 µM (inactive)
